{"source": "patent US20250346642A1", "about": "“NEW SPLICE VARIANT ISOFORM OF VEGF” (CENTRE NATIONAL DE LA RECHERCHE SCIENTIFIQUE (CNRS), priority 2020, published 2025)", "key": {"786-O cells [1]": {"system": "786-O cells", "assay": "786-O experimental tumors in mice, anti-VEGFXXX/NF, bevacizumab or anti-KLH treatment (FIG. 12D-J)", "type": "in vivo", "conditions": "786-O tumors", "experimental": "(E) The weight of 786-O tumors at the end of the experiment. (F) Quantification of Ki67 positive cells in 786-0 tumors. […] (G) Number of mature (CD31+, a-SMA+) vessels in the different tumor sections.\nPlasma levels of VEGFXXX/NFand VEGF are increased in the VEGF bevacizumab-treated group. […] FIG. 13. A-D) The levels of VEGF and VEGF222/NF were evaluated in the plasma (just before sunitinib treatment) of 47 metastatic ccRCC patients. The third quartile was used as the cut-off to determine patients' groups, respectively 4500 […] for VEGF and VEGF222/NF. The plasma levels of VEGF (A and C) or VEGF222/NF (B and D) were correlated to PFS under first-line sunitinib treatment (A and B) or with OS (C and D). Kaplan-Meier method was used to produce survival curves and analyzes of censored data were performed using Cox models. Statistical significance (p values) is indicated.\nTumor sections (5-μm cryostat sections) were fixed in 4% paraformaldehyde for twenty minutes at room temperature and blocked in 1% donkey serum in Tris-buffered saline (TBS) for two hours. […] Preparations were mounted and analyzed with a Leica microscope (Leica DMI4000B) and counted at a 10× magnification. Results are expressed as the number of vessels per mm^2 of sections."}, "786-O cells [2]": {"system": "786-O cells", "assay": "786-O experimental RCC tumors in NMRI mice, antibody treatment (FIG. 10)", "type": "in vivo", "conditions": "intraperitoneal once a week for 6 weeks, 5 mg/kg", "source_text": "FIG. 10. VEGF222/NF inhibition delays tumor growth of experimental RCC. 3M of 786-O cells were subcutaneously grafted in the left flank of NMRI mice. […] Tumor volumes were monitored with a caliper for 50 days. ***P<0.001, ****P<0.0001 (Anova Test).\nFor generating control or polyclonal anti-VEGF222/NF antibodies, 6 weeks BALB/cJRj mice (n=10) were immunized either with KLH carrier protein or with specific peptides SEQ 1 and SEQ2 coupled to KLH as previously described (Guyot et al., 2017, Targeting the pro-angiogenic forms of VEGF or inhibiting their expression as anti-cancer strategies. Oncotarget 8, 9174-9188) IgG were purified of Protein G Sepharose column. All animal studies were approved in advance by the local animal care committee (Veterinary service and direction of sanitary and social action of Monaco, Dr H. Raps.)"}}}
{"substance": "bevacizumab", "values": [{"measurement": "number of lymphatic vessels (LYVE1+) in tumors", "setting": "786-O cells [1]", "result": "stimulated their development"}, {"measurement": "size of tumors versus control group", "setting": "786-O cells [1]", "result": "equivalent to those of the control group"}, {"measurement": "tumor growth of 786-O experimental tumors", "setting": "786-O cells [2]", "result": "did not"}]}
